1 compound from patent US8501400B2, “Methods and compositions for determining the pathogenic status of infectious agents” (priority 2007, dated 2013) can be followed below.

One assay deals with RIF-resistant Mtb strain. It counts as cell-based. The settings on record: 16 hr drug treatment, MOI=1, 4 hr post-infection, RT-PCR.
In another assay the test system is EMB resistant Mtb strain. The class given is cell-based. The settings on record: 16 hr drug treatment, MOI=1, 4 hr post-infection, RT-PCR.

Take `CC[C@@H](CO)NCCN[C@@H](CC)CO` [EMB, Ethambutol]: the “Reduction in SML generation compared to the untreated control” value in the assay with RIF-resistant Mtb strain is “approximately 10 fold”. The “SML generation after drug treatment” value with EMB resistant Mtb strain is “not decreased”.
